Laboratory results as given in patent publication US4559323A, “A41030 Antibiotics” (Eli Lilly and Company, priority 1984, dated 1985).
Like-named read-outs stand apart in the source and are kept apart here.

Assays:
Clostridium perfringens = assay type: cell-based; conditions: Table 14; Clostridium perfringens 81
Staph. aureus = assay: Experimental bacterial infection in mice, subcutaneous ED50; assay type: in vivo; conditions: two doses subcutaneously
Procedure: (§1) All of the A41030 factors tested have shown in vivo antimicrobial activity against experimental bacterial infections. When two doses of test compound were administered subcutaneously to mice in illustrative infections, the activity observed is measured as an ED50 value [effective dose in mg./kg. to protect fifty percent of the test animals: See Warren Wick, et al., J. Bacteriol. 81, 233-235 (1961)].

S. pyogenes = assay: as above; assay type: in vivo; conditions: two doses subcutaneously
Procedure: as §1

S. pneumoniae = assay: as above; assay type: in vivo; conditions: two doses subcutaneously
Procedure: as §1

Propionibacterium acnes = assay: Agar-dilution MIC (anaerobes); assay type: cell-based; conditions: Table 14; Propionibacterium acnes 79
Text: Antibiotic A41030 factors A, B and C have also been tested and found to be active against a genus of anaerobic bacteria identified as Propionibacterium acnes.

[1] = system: Fusobacterium necrophorum; assay: Agar-dilution MIC (anaerobes); assay type: cell-based; conditions: Table 14; Fusobacterium necrophorum 6054A
[2] = system: Peptococcus asaccharolyticus; assay: Agar-dilution MIC (anaerobes); assay type: cell-based; conditions: Table 14; Peptococcus asaccharolyticus 1302
Staphylococcus aureus = assay: Agar-dilution MIC; assay type: cell-based; conditions: Table 17, 24 hours
Clostridium difficile = assay type: cell-based
Text: The A41030 antibiotic factors A, B, C, D, E, F, and G, are also active against a number of strains of Clostridium difficile, as determined by the agar-dilution method.

Salmonella typhi = assay: Agar-dilution MIC; assay type: cell-based; conditions: Table 17, 24 hours
Clostridium septicum = assay: Agar-dilution MIC (anaerobes); assay type: cell-based; conditions: Table 14; Clostridium septicum 1128
Eubacterium aerofaciens = assay: Agar-dilution MIC (anaerobes); assay type: cell-based; conditions: Table 14; Eubacterium aerofaciens 1235
B. thetaiotaomicron = assay type: cell-based; conditions: Table 14; Bacteroides thetalotaomicron 1438
Text: (§2) The agar-dilution procedure described by the International Collaborative study (ICS) group was used to determine the minimum inhibitory concentrations (MIC's).

[3] = Electrometric titration (pKa); assay type: physicochemical; conditions: electrometric titration in 66% dimethylformamide in water
Fusobacterium symbiosum = assay: Agar-dilution MIC (anaerobes); assay type: cell-based; conditions: Table 14; Fusobacterium symbiosum 1470
Streptococcus pneumoniae = assay: Agar-dilution MIC; assay type: cell-based; conditions: Table 17; 24 hours; Streptococcus pneumoniae Park I
Text: as §2

[4] = system: Streptococcus sp. (Group D); assay: Agar-dilution MIC; assay type: cell-based; conditions: Table 17, 24 hours
Text: as §2

[5] = system: Staphylococcus epidermidis; assay: Agar-dilution MIC; assay type: cell-based; conditions: Table 17; 24 hours; Staphylococcus epidermidis EPI1
Text: as §2

Streptococcus pyogenes = assay: Agar-dilution MIC; assay type: cell-based; conditions: Table 17; 24 hours; Streptococcus pyogenes C203
Text: as §2

Bacteroides fragilis = assay: Agar-dilution MIC (anaerobes); assay type: cell-based; conditions: Table 14
Text: as §2

[6] = system: Peptostreptococcus anaerobius; assay: Agar-dilution MIC (anaerobes); assay type: cell-based; conditions: Table 14; Peptostreptococcus anaerobius 1428
Bacteroides vulgatis = assay: Agar-dilution MIC (anaerobes); assay type: cell-based; conditions: Table 14; Bacteroides vulgatis 1211
Hemophilus influenzae = assay: Agar-dilution MIC; assay type: cell-based; conditions: Table 17, 24 hours
Bacteroides corrodens = assay: Agar-dilution MIC (anaerobes); assay type: cell-based; conditions: Table 14; Bacteroides corrodens 1874
[7] = system: Bacteroides melaninogenicus; assay: Agar-dilution MIC (anaerobes); assay type: cell-based; conditions: Table 14; Bacteroides melaninogenicus 2736
Peptococcus prevoti = assay: Agar-dilution MIC (anaerobes); assay type: cell-based; conditions: Table 14; Peptococcus prevoti 1281
Solubility in solvents = assay type: physicochemical; conditions: solvents as named
Text: The seven antibiotic factors are recovered from the fermentation and are obtained as a mixture, the A41030 complex. It will be recognized that the ratio of the factors in the A41030 complex will vary, depending upon the fermentation conditions used. The individual factors […], and G are separated and isolated as individual compounds, as hereinafter described.

[8] = system: Peptostreptococcus intermedius; assay: Agar-dilution MIC (anaerobes); assay type: cell-based; conditions: Table 14; Peptostreptococcus intermedius 1264

A41030 factor F
MIC (Clostridium perfringens): 1.0 µg/mL
ED50 (Staph. aureus): < 0.31 mg/kg
ED50 (S. pyogenes): > 5.0 mg/kg
ED50 (S. pneumoniae): > 5.0 mg/kg
MIC (Propionibacterium acnes): 1.0 µg/mL
MIC [1]: 1.0 µg/mL
MIC [2]: ≤ 0.25 µg/mL
MIC (Staphylococcus aureus; Staphylococcus aureus 3055): 0.5 µg/mL
MIC (Staphylococcus aureus; Staphylococcus aureus S13E): 1 µg/mL
MIC (Staphylococcus aureus; Staphylococcus aureus V41): 0.5 µg/mL
MIC (Staphylococcus aureus; Staphylococcus aureus X400): 1 µg/mL
MIC (Clostridium difficile): 1 µg/mL
MIC (Clostridium difficile; Table 16, C. difficile 78): 1.0 µg/mL
MIC (Clostridium difficile; Table 16, C. difficile 107B): 1.0 µg/mL
MIC (Clostridium difficile; Table 16, C. difficile 111F): 2 µg/mL
MIC (Clostridium difficile; Table 16, C. difficile 1153): 2 µg/mL
MIC (Clostridium difficile; Table 16, C. difficile 2634): 2 µg/mL
MIC (Clostridium difficile; Table 16, C. difficile 3424-5B): 1.0 µg/mL
MIC (Clostridium difficile; Table 16, C. difficile 3816): 1.0 µg/mL
MIC (Clostridium difficile; Table 16, C. difficile 3950): 1.0 µg/mL
MIC (Clostridium difficile; Table 16, C. difficile 6890): 1.0 µg/mL
MIC (Clostridium difficile; Table 16, C. difficile 8484): 1.0 µg/mL
MIC (Clostridium difficile; Table 16, C. difficile A-194): 1.0 µg/mL
MIC (Clostridium difficile; Table 16, C. difficile A-195): 1.0 µg/mL
MIC (Clostridium difficile; Table 16, C. difficile A-196): 2 µg/mL
MIC (Clostridium difficile; Table 16, C. difficile A-279): 1.0 µg/mL
MIC (Clostridium difficile; Table 16, C. difficile A-280): 1.0 µg/mL
MIC (Clostridium difficile; Table 16, C. difficile A-281): 2 µg/mL
MIC (Clostridium difficile; Table 16, C. difficile WAL-2112): 1.0 µg/mL
MIC (Clostridium difficile; Table 16, C. difficile WAL-3657): 1.0 µg/mL
MIC (Clostridium difficile; Table 16, C. difficile WAL-4268): 1.0 µg/mL
MIC (Salmonella typhi; Salmonella typhi 1335): > 128 µg/mL
MIC (Salmonella typhi; Salmonella typhi X514): > 128 µg/mL
MIC (Clostridium septicum): 1.0 µg/mL
MIC (Eubacterium aerofaciens): 1.0 µg/mL
MIC (B. thetaiotaomicron): 64 µg/mL
pKa, first titratable group [3]: about 5.4
pKa, second titratable group [3]: ~7.1
MIC (Fusobacterium symbiosum): 1.0 µg/mL
MIC (Streptococcus pneumoniae): 2 µg/mL
MIC ([4]; Streptococcus sp. Group D 9960): 4 µg/mL
MIC ([4]; Streptococcus sp. Group D X66): 4 µg/mL
MIC [5]: 0.25 µg/mL
MIC (Streptococcus pyogenes): 2 µg/mL
MIC (Bacteroides fragilis; Bacteroides fragilis 111): 32 µg/mL
MIC (Bacteroides fragilis; Bacteroides fragilis 1877): 32 µg/mL
MIC (Bacteroides fragilis; Bacteroides fragilis 1936B): 32 µg/mL
MIC [6]: 32 µg/mL
MIC (Bacteroides vulgatis): 32 µg/mL
MIC (Hemophilus influenzae; Haemophilus influenzae 76): 32 µg/mL
MIC (Hemophilus influenzae; Haemophilus influenzae C.L.): 32 µg/mL
MIC (Bacteroides corrodens): 32 µg/mL
MIC [7]: 1.0 µg/mL
MIC (Peptococcus prevoti): 32 µg/mL
Solubility (Solubility in solvents): soluble in the same solvents as factor A
MIC [8]: 1.0 µg/mL
